In one experiment the test system is osteoarthritis. As to conditions: literature study; cited from earlier work.
For experiment [1], the system named is seasonal allergic rhinitis. The conditions noted are these: oral, 2600 mg to 5200 mg per day; cited from earlier work.
The next experiment relates to murine macrophages. As to conditions: in vitro; cited from earlier work.
The next experiment has as its system psoriasis. The experiment can be described thus: Summary of treatments: Psoriasis. In kind it is in vivo, human. Further details: key: The + values in the table represent a qualitative assessment of the treatment of symptoms in the patient groups tests; ++: The + values in the table represent a qualitative assessment of the treatment of symptoms in the patient groups tests; +++: The + values in the table represent a qualitative assessment of the treatment of symptoms in the patient groups tests; ++++: The + values in the table represent a qualitative assessment of the treatment of symptoms in the patient groups tests; +++++: 5+ indicating the greatest improvement in symptoms. The conditions noted are these: patient groups.

The test system of another experiment is Solar Keratosis. The experiment can be described thus: Summary of treatments: Solar Keratosis. In kind it is in vivo, human. On the set-up: key: The + values in the table represent a qualitative assessment of the treatment of symptoms in the patient groups tests; ++: The + values in the table represent a qualitative assessment of the treatment of symptoms in the patient groups tests; +++: The + values in the table represent a qualitative assessment of the treatment of symptoms in the patient groups tests; ++++: The + values in the table represent a qualitative assessment of the treatment of symptoms in the patient groups tests; +++++: 5+ indicating the greatest improvement in symptoms. As to conditions: patient groups.

The subject of another experiment is chondrocytes. As to conditions: in vitro; cited from earlier work.
In a further experiment the test system is TNF-α production. As to conditions: in vitro; cited from earlier work.

For `CS(C)(=O)=O` [MSM, Methylsulphonylmethane], in the experiment with osteoarthritis, the effect in osteoarthritis result is “analgesic and anti-inflammatory effect”. In experiment [1], the “symptoms associated with seasonal allergic rhinitis” value was “may reduce symptoms”. Besides, the “effect in murine macrophages (release of pro-inflammatory cytokines)” value with murine macrophages was “anti-inflammatory effect”.

As to `NC(=O)c1cccnc1` [Nicotinamide oral (NC), nicotinamide], the “qualitative assessment of the treatment of symptoms: Psoriasis” value in the experiment on psoriasis is “+”. Moreover, the “qualitative assessment of the treatment of symptoms: Solar Keratosis” value in the experiment on Solar Keratosis is reported as “+”.

In the case of `N[C@H]1C(O)O[C@H](CO)[C@@H](O)[C@@H]1O` (some centres unmarked) [glucosamine], the effect in osteoarthritis result in the experiment with osteoarthritis is given as “may improve the symptoms”. Besides, the “synthesis of proinflammatory mediators in chondrocytes” value with chondrocytes was “inhibits the synthesis of proinflammatory mediators”.

Take `NCC(=O)O` [glycine]: the “immunomodulatory action, possibly by inhibiting TNF-α production” value in the experiment with TNF-α production was “immunomodulatory action”.

The record behind these values is patent US9387218B2, “Composition for the treatment of inflammatory and immune disorders” (EAGLEPHARMA PTY LTD, priority 2012, dated 2016).
